Assay results taken from patent publication US20230167170A1, “COMPOSITIONS COMPRISING ANTI-VEGF AND NANOPARTICLES AND METHODS OF USING THE SAME FOR THE TREATMENT OF ABNORMAL OR EXCESSIVE ANGIOGENESIS” (Cellviva, LLC, priority 2020, published 2023).

System: pyogenic granuloma lesion
Assay: Treatment of pyogenic granuloma after pterygiectomy and amniotic membrane graft with bevacizumab combination therapy (patient cases)
Format: in vivo, human
Protocol: A topical anesthetic (proparacaine 0.5% eye drops or Alcaine manufactured by Alcon Laboratories, Inc.) was applied to the eye following recent pterygiectomy and amniotic membrane graft surgery. The patients were examined to identify any abnormal grown on the eye. […] A syringe containing approximately 0.05 mL of bevacizumab ([…]) was injected into the eye and the plunger was drawn back to determine if blood was present in the syringe hub. […] Bevacizumab was then injected into the pyogenic granuloma lesion and/or in areas adjacent to the lesion where blood vessels were dilated and numerous. If bleeding occurred (e.g., in the form of subconjunctival or subcutaneous hematoma), tamponade with Q-tips was performed until bleeding stopped; then injection was resumed. The anti-inflammatory steroid drug and/or NSAID were administered either before or after the bevacizumab injection. The anti-inflammatory steroid drug and/or NSAID were administered by injection and/or via eye drops. If the anti-inflammatory steroid drug and/or NSAID was administered by injection, it was done following a similar process as described above for the bevacizumab injection. A syringe containing approximately 0.03 mL triamcinolone injection (40 mg/mL) was injected into the pyogenic granuloma lesion and the plunger was drawn back to determine if blood was present in the syringe hub. […] The anti-inflammatory steroid drug or NSAID was injected into the pyogenic granuloma lesion and/or in areas adjacent to the lesion where blood vessels were dilated and numerous. If bleeding occurred (e.g., in the form of subconjunctival or subcutaneous hematoma), tamponade with Q-tips was performed until bleeding stopped; then injection was resumed. If the anti-inflammatory steroid drug or NSAID was delivered by eyedrops, the steroid eye drops were given for approximately 6 weeks 1 to 4 times a day (every 6 hours) or once every hour (24 drops/day). NSAID eye drops were given 4 times a day every 6 hours for 3 to 6 months. Patients were followed up with to monitor for appearance of new pyogenic granuloma. The presence of new pyogenic granuloma was an indication for further treatment (e.g. with injection and/or eye drops). In some cases, during the first surgery to remove pterygium, the pterygium was only partially removed to prevent necrosis). Thus, in some patients, additional surgeries were subsequently performed to remove remaining sections of the pterygium, resulting in additional pyogenic granuloma. Two patients (Patients 1 and 2) underwent surgery to remove primary pterygium (pterygiectomy) from the cornea of one or both eyes followed by amniotic membrane graft surgery and were treated as described below.

[1] = Patient 2, left eye, 1-month follow-up visit, triamcinolone day 98, bevacizumab day 100

## bevacizumab
Patient 1, right eye, 30 days after day 104, triamcinolone day 90, bevacizumab day 97
  resolution of pyogenic granuloma: completely resolved
Patient 1, right eye, day 104 after surgery, triamcinolone 0.03 mL (40 mg/mL) day 90, then bevacizumab 0.05 mL (1.25 mg/mL) day 97, both into the lesion
  pyogenic granuloma size: considerably smaller in circumference
Patient 1, right eye, day 104 after surgery, triamcinolone day 90, bevacizumab day 97
  hyperemia of pyogenic granuloma: no evidence of hyperemia
Patient 1, combination therapy of bevacizumab and an anti-inflammatory steroid (injected)
  pyogenic granuloma lesions, stated conclusion: inhibited
[1]
  recurrence of pyogenic granuloma: no evidence of recurrence
  resolution of pyogenic granuloma: completely resolved
Patient 2, left eye, within two weeks of bevacizumab injection, triamcinolone 0.03 mL (40 mg/mL) day 98, bevacizumab 0.05 mL (1.25 mg/mL) day 100
  pyogenic granuloma size: significantly smaller
Patient 2, left eye, within two weeks of bevacizumab injection, triamcinolone day 98, bevacizumab day 100
  erythema of pyogenic granuloma: less erythematous
Patient 2, combination therapy of bevacizumab and an anti-inflammatory steroid (injected or topical)
  pyogenic granuloma lesions, stated conclusion: inhibited
Patient 3, right eye, day 86, triamcinolone 0.03 mL (40 mg/mL) day 60, bevacizumab 0.05 mL (1.25 mg/mL) day 68, FIG. 4
  resolution of pyogenic granuloma: completely resolved
Patient 3, combination therapy of bevacizumab, an anti-inflammatory steroid (injected or topical) and a topical NSAID
  pyogenic granuloma, stated conclusion: eliminated
Patient 3, combination therapy of bevacizumab, anti-inflammatory steroid and topical NSAID
  combination therapy compared with bevacizumab alone: superior to treatment with bevacizumab alone
Patient's eye 18 days after injection of both Kenalog and bevacizumab, FIG. 4
  pyogenic granuloma lesion after steroid and anti-VEGF injection: significant reduction in the pyogenic granuloma lesion
